In ChEMBL document CHEMBL1201862, “PubChem BioAssay data set” (2004):
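Results reflect a 48-hour exposure of cells in 96-well plates to compound at five concentrations. GI50 is the concentration that inhibits growth by half.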 The source made the active and inactive calls. Rule as the data show it: active = GI50 up to about 1.1 µM and inactive = higher.

Legend:
Assay in all cases: DTP human tumour cell line panel, 48 h
A498 = tested on: A498
MCF7 = tested on: MCF7
K562 = tested on: K562
Hs-578T = tested on: Hs-578T
NCI-H522 = tested on: NCI-H522
SW-620 = tested on: SW-620
MDA-N = tested on: MDA-N
MOLT-4 = tested on: MOLT-4
M14 = tested on: M14
786-0 = tested on: 786-0
IGROV-1 = tested on: IGROV-1
SK-MEL-5 = tested on: SK-MEL-5
ACHN = tested on: ACHN
SK-OV-3 = tested on: SK-OV-3
DU-145 = tested on: DU-145
NCI-H23 = tested on: NCI-H23
SN12C = tested on: SN12C
OVCAR-5 = tested on: OVCAR-5
SNB-75 = tested on: SNB-75
UACC-62 = tested on: UACC-62

Compound	GI50 (A498)	GI50 (MCF7)	GI50 (K562)	GI50 (Hs-578T)	GI50 (NCI-H522)	GI50 (SW-620)	GI50 (MDA-N)	GI50 (MOLT-4)	GI50 (M14)	GI50 (786-0)	GI50 (IGROV-1)	GI50 (SK-MEL-5)	GI50 (ACHN)	GI50 (SK-OV-3)	GI50 (DU-145)	GI50 (NCI-H23)	GI50 (SN12C)	GI50 (OVCAR-5)	GI50 (SNB-75)	GI50 (UACC-62)
CC/C(Cl)=N\OC(=O)Nc1ccccc1OC(F)(F)F	19.6 µM (inactive)	9.12 µM (inactive)	1.95 µM (inactive)	30.2 µM (inactive)	0.665 µM (active)	2.52 µM (inactive)	8.47 µM (inactive)	1.81 µM (inactive)	6.9 µM (inactive)	10.1 µM (inactive)	15.8 µM (inactive)	7.38 µM (inactive)	1.91 µM (inactive)	20.2 µM (inactive)	18.7 µM (inactive)	20.9 µM (inactive)	7.05 µM (inactive)	20.1 µM (inactive)	19.7 µM (inactive)	17 µM (inactive)
CCNC(=O)OCC1C2=C(C(=O)C(C)=C(N)C2=O)N2CC3C(N3C)C12OC (stereo not given)	20.9 µM (inactive)	4.95 µM (inactive)	25.5 µM (inactive)	> 100 µM (inactive)	11.7 µM (inactive)	9.93 µM (inactive)	> 88.5 µM (inactive)	3.28 µM (inactive)	9.86 µM (inactive)	10.1 µM (inactive)	18.5 µM (inactive)	12.8 µM (inactive)	4.22 µM (inactive)	27.4 µM (inactive)	4.1 µM (inactive)	1.4 µM (inactive)	13.5 µM (inactive)	> 72.6 µM (inactive)	21.7 µM (inactive)	11.9 µM (inactive)
O=C(N/N=C/c1ccc(Cl)cc1)c1c(Cl)c(Cl)c(Cl)c(Cl)c1-c1nc2ccccc2[nH]1	98.2 µM (inactive)	16.2 µM (inactive)	47.9 µM (inactive)	1.83 µM (inactive)	55.7 µM (inactive)	> 100 µM (inactive)	56.8 µM (inactive)	40.2 µM (inactive)	86.5 µM (inactive)	28.6 µM (inactive)	59.3 µM (inactive)	49 µM (inactive)	64.6 µM (inactive)	0.0454 µM (active)	> 100 µM (inactive)	> 100 µM (inactive)	> 100 µM (inactive)	> 100 µM (inactive)	> 100 µM (inactive)	80.9 µM (inactive)
O=C1CCCCCCCCCCC1CN1CCCC1 (stereo not given)	19.4 µM (inactive)	20.5 µM (inactive)	53.8 µM (inactive)	17.9 µM (inactive)	39.3 µM (inactive)	39.3 µM (inactive)	33 µM (inactive)	39.4 µM (inactive)	20.1 µM (inactive)	20.4 µM (inactive)	46 µM (inactive)	17.6 µM (inactive)	54.8 µM (inactive)	50.9 µM (inactive)	29.9 µM (inactive)	36.1 µM (inactive)	41.1 µM (inactive)	22.3 µM (inactive)	32.9 µM (inactive)	17.1 µM (inactive)
CO/N=C1\CC(C)N2C(=O)C(C(C)C)NC(=O)C(NC(=O)c3c4nc5c(C(=O)NC6C(=O)NC(C(C)C)C(=O)N7C(C)CC(O)C7C(=O)N(C)CC(=O)N(C)C(C(C)C)C(=O)OC6C)ccc(C)c5oc-4c(C)c(=O)c3N)C(CO)OC(=O)C(C)N(C)C(=O)CN(C)C(=O)C12 (stereo not given)	1.13 µM (inactive)	0.34 µM (active)	0.159 µM (active)	0.906 µM (active)	0.249 µM (active)	0.346 µM (active)	0.773 µM (active)	0.222 µM (active)	2.26 µM (inactive)	1.01 µM (active)	0.191 µM (active)	0.174 µM (active)	1.26 µM (inactive)	3.66 µM (inactive)	1.97 µM (inactive)	1.43 µM (inactive)	0.416 µM (active)	6.92 µM (inactive)	0.883 µM (active)	0.29 µM (active)
CN1CCC(n2[nH]c(-c3ccccc3)c(Cc3ccccc3)c2=O)CC1 [BENZPIPERYLON]	93.3 µM (inactive)	> 100 µM (inactive)	42.2 µM (inactive)	50.9 µM (inactive)	> 100 µM (inactive)	> 100 µM (inactive)	> 100 µM (inactive)	19.5 µM (inactive)	> 100 µM (inactive)	> 100 µM (inactive)	59.7 µM (inactive)	> 100 µM (inactive)	> 100 µM (inactive)	> 100 µM (inactive)	97.3 µM (inactive)	> 100 µM (inactive)	> 100 µM (inactive)	> 100 µM (inactive)	29.7 µM (inactive)	> 100 µM (inactive)
NCCN(CCN)/[N+]([O-])=N/O	> 100 µM (inactive)	47.4 µM (inactive)	50.5 µM (inactive)	> 100 µM (inactive)	93.3 µM (inactive)	> 100 µM (inactive)	> 100 µM (inactive)	> 100 µM (inactive)	72.8 µM (inactive)	> 100 µM (inactive)	> 100 µM (inactive)	> 100 µM (inactive)	> 100 µM (inactive)	> 100 µM (inactive)	> 100 µM (inactive)	> 100 µM (inactive)	> 100 µM (inactive)	> 100 µM (inactive)	> 100 µM (inactive)	> 100 µM (inactive)
COc1ccc(C2CC(c3c(O)ccc4ccccc34)=NN2C(C)=O)cc1OC (stereo not given)	24.3 µM (inactive)	23.7 µM (inactive)	13.7 µM (inactive)	36.9 µM (inactive)	31.7 µM (inactive)	32.9 µM (inactive)	20.7 µM (inactive)	19.3 µM (inactive)	24.1 µM (inactive)	33.3 µM (inactive)	38.7 µM (inactive)	21.9 µM (inactive)	35.4 µM (inactive)	57.8 µM (inactive)	36.2 µM (inactive)	23.4 µM (inactive)	26.5 µM (inactive)	40.6 µM (inactive)	19.8 µM (inactive)	15.1 µM (inactive)
CCN1CCC(O)(/C=C/c2ccc(Cl)c(Cl)c2)C(C(=O)/C=C/c2ccc(Cl)c(Cl)c2)C1 (stereo not given)	0.891 µM (active)	1.06 µM (active)	0.324 µM (active)	0.271 µM (active)	0.948 µM (active)	0.466 µM (active)	1.55 µM (inactive)	0.243 µM (active)	0.733 µM (active)	1.41 µM (inactive)	0.706 µM (active)	0.834 µM (active)	1.06 µM (active)	1.72 µM (inactive)	1.13 µM (inactive)	0.255 µM (active)	0.873 µM (active)	1.12 µM (inactive)	1.01 µM (active)	0.973 µM (active)
CC(=O)N(C(C)=O)c1ncc(-n2nc(-c3ccccc3)cc2-c2ccccc2)c(-c2ccccc2)n1	> 10 µM (inactive)	5.07 µM (inactive)	> 10 µM (inactive)	> 10 µM (inactive)	> 10 µM (inactive)	> 10 µM (inactive)	3.15 µM (inactive)	5.22 µM (inactive)	> 10 µM (inactive)	> 10 µM (inactive)	> 10 µM (inactive)	4.12 µM (inactive)	> 10 µM (inactive)	> 10 µM (inactive)	> 10 µM (inactive)	> 10 µM (inactive)	> 10 µM (inactive)	> 10 µM (inactive)	> 10 µM (inactive)	> 10 µM (inactive)
COc1ccc(-c2cs/c(=N\c3ccccc3)n2CC(O)c2ccc([N+](=O)[O-])cc2)cc1 (stereo not given)	> 100 µM (inactive)	> 63.8 µM (inactive)	3.84 µM (inactive)	> 100 µM (inactive)	> 100 µM (inactive)	> 100 µM (inactive)	> 100 µM (inactive)	4.06 µM (inactive)	> 100 µM (inactive)	> 100 µM (inactive)	> 100 µM (inactive)	4.04 µM (inactive)	> 100 µM (inactive)	> 100 µM (inactive)	> 100 µM (inactive)	> 100 µM (inactive)	> 100 µM (inactive)	> 100 µM (inactive)	> 100 µM (inactive)	> 73.5 µM (inactive)
